The test system of experiment [1] is pro-inflammatory cytokines (IL-1, IL-6, IL-8, TNF-alpha, INF-gamma). In words: CBA flux cytometry dosage of cytokine secretion in culture supernatants of UV-irradiated reconstructed skin. The experiment is classed as cell-based, human. Conditions: for efficiency on cell viability and synthesis of pro-inflammatory interleukins after solar UV stress: both parameters (cell mortality, pro-inflammatory molecules), UV-irradiated reconstructed skin; for TNFβ / IL1β / IL8 / IL6: reconstructed skin UV irradiated + formulation with 3% active, 10 days; for TNFβ: control 53, UV irradiated 152; for IL1β: control 76, UV irradiated 179; for IL8: control 275, UV irradiated 395; for IL6: control 379, UV irradiated 649. The text has this: The model was made according to the following protocol: • The reconstructed dermis model containing DCCs, macrophages and endothelial cells was made according to Example 12. • The reconstructed skin model containing LCs was made according to Example 14.

The subject of experiment [2] is keratinocytes and LCs or fibroblasts and DDC in co-culture. In words: Cytokine secretion in monolayer pluricellular co-culture models under the effect of an active ingredient. Conditions: retinol 0.05% final concentration in culture medium for 3 days. The experiment is classed as cell-based, human. The text has this:
1 to 2.10^6 human keratinocytes and 1 to 2.10^6 human monocytes (obtained according to Example 1 or 2) are jointly grown in a nutritious medium, for example of the K-SFM type, in culture dishes, for example of the 6-well plate type. The joint culture is maintained for 6 days in a nutritious medium, for example of the K-SFM type, without adding any exogenous cytokine.
1 to 2.10^6 human fibroblasts and 1 to 2.10^6 human monocytes (obtained according to Example 1 or 2) are jointly grown in a nutritious medium, for example of the FBM type, in culture dishes for example of the 6-well plate type. The joint culture is maintained for 6 days in a nutritious medium, for example of the FBM type, without adding any exogenous cytokine.
In order to assess the irritating, sensitizing, allergizing potency, and to estimate a possible pro- or anti-inflammatory activity of an active ingredient intended for human skin, we quantify in the culture supernatants, secretion of cytokines, for example, IL-1, IL-6, IL-8, IL-10, TNF-[…] INF[…], according to the following protocol: • The model is made according to the protocol described in Example 3 or 4. • Retinol is then added into the culture medium at a final concentration of 0.05% for 3 days. • The culture supernatants are then recovered and analyzed.

As to Hesperitine Laurate [Flavagrum], in experiment [1], the “efficiency on cell viability and synthesis of pro-inflammatory interleukins after solar UV stress” value is given as “demonstrated efficiency with a possible tendency to restore the reference level”; the TNFβ is reported as 105 pg/mL; the IL1β is listed as 125 pg/mL; the IL8 worked out at 312 pg/mL. Besides, the IL6 in experiment [1] was 452 pg/mL.
Turning to `CC1=C(/C=C/C(C)=C/C=C/C(C)=C/CO)C(C)(C)CCC1` [retinol, Retinol], in experiment [2], the “secretion of pro-inflammatory cytokines” value is recorded as “stimulation of secretion of pro-inflammatory cytokines”.
Take Quercitine Caprylate [Flavenger]: in experiment [1], the “efficiency on cell viability and synthesis of pro-inflammatory interleukins after solar UV stress” value is given as “demonstrated efficiency with a possible tendency to restore the reference level”; the TNFβ was found to be 89 pg/mL; the IL1β is recorded as 97 pg/mL; the IL8 is 294 pg/mL. For the same compound, in experiment [1], the IL6 is 426 pg/mL.
